Consider eight compounds from ChEMBL document CHEMBL1201862, “PubChem BioAssay data set” (2004).

Among the test systems are U-251; XF498; HOP-18; SK-OV-3; IGROV-1; DMS-114; M19-MEL; K562; NCI-H460; CCRF-CEM; SK-MEL-28; KM12; ACHN.
Assay in all cases: inhibition of tumour cell growth, NCI panel, 48 h

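All cell lines were grown in 96-well plates and treated with compound for 48 hours. GI50 marks 50% less growth.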 Activity calls are given as the source filed them. Cut-off read from the data, not from the text of the source: active = GI50 up to about 1.1 µM and inactive = higher. Where only a bound is given, the exact number is not on record here.

Regarding `c1ccc2cc3c(cc2c1)OP1(Oc2cccc4cccnc24)(O3)Oc2cc3ccccc3cc2O1`, the GI50 was 6.85 µM (inactive) in the assay with U-251; 3.71 µM (inactive) in the assay with XF498; 9.48 µM (inactive) in the assay with HOP-18; 34.7 µM (inactive) with SK-OV-3; 5.36 µM (inactive) in the assay on IGROV-1; 1.79 µM (inactive) in the assay with DMS-114. Further, the GI50 was 9.89 µM (inactive) in the assay on M19-MEL; 2.04 µM (inactive) with K562; 2.52 µM (inactive) with NCI-H460; 0.984 µM (active) in the assay with CCRF-CEM; 15.8 µM (inactive) with SK-MEL-28; 5.31 µM (inactive) in the assay with KM12.
As for `CC(C)N/C(N)=N/C#N`, the GI50 in the assay on XF498, in the assay with HOP-18, in the assay with SK-OV-3, in the assay on IGROV-1, in the assay on DMS-114 and with M19-MEL was > 100 µM (inactive) each time. Further, the GI50 with K562, in the assay on NCI-H460, in the assay on ACHN, in the assay with CCRF-CEM and with KM12 was > 100 µM (inactive) each time.
For the compound `CCOC(=O)C[n+]1ccc2c([nH]c3cc(OC)ccc32)c1C`, the GI50 in the assay with U-251 was > 77.4 µM (inactive); in the assay with XF498, 25.9 µM (inactive); in the assay on HOP-18 it was > 100 µM (inactive); in the assay on SK-OV-3 it was > 100 µM (inactive); in the assay with IGROV-1, > 100 µM (inactive); in the assay on DMS-114 it was > 83.2 µM (inactive). The GI50 with M19-MEL is > 100 µM (inactive); with K562, > 100 µM (inactive); in the assay on NCI-H460, > 88.1 µM (inactive); in the assay with CCRF-CEM it was > 96.2 µM (inactive); in the assay on SK-MEL-28, > 100 µM (inactive); in the assay on KM12 it was > 100 µM (inactive).
In the case of `Cc1ccc(OP2(=O)Oc3ccc4ccccc4c3CN2c2ccc(Cl)cc2)cc1C` (centres undefined), the GI50 in the assay on U-251, in the assay on XF498, in the assay with HOP-18, in the assay with SK-OV-3, with IGROV-1 and in the assay with DMS-114 was > 100 µM (inactive) throughout. Moreover, the GI50 in the assay on M19-MEL, in the assay on K562, in the assay on NCI-H460, in the assay with CCRF-CEM, in the assay with SK-MEL-28 and in the assay on KM12 was > 100 µM (inactive) in each case.
In the case of `O=[N+]([O-])c1cnccc1-n1nnc2ccccc21`, the GI50 in the assay on U-251 is 22.5 µM (inactive); with XF498 it was 13.8 µM (inactive); in the assay with HOP-18, 14.1 µM (inactive); with SK-OV-3, 23.3 µM (inactive); in the assay on IGROV-1, 13.9 µM (inactive); in the assay on DMS-114, 11.5 µM (inactive). In addition, the GI50 in the assay on M19-MEL was 15.3 µM (inactive); in the assay on K562 it was 20.7 µM (inactive); in the assay on NCI-H460, 21.5 µM (inactive); in the assay on CCRF-CEM it was 19.8 µM (inactive); in the assay with SK-MEL-28, 19.9 µM (inactive); with KM12, 17.2 µM (inactive).
With `S=C(NCCCCCCNC(=S)Nc1c2ccccc2nc2ccccc12)Nc1c2ccccc2nc2ccccc12`, the GI50 with U-251 is > 91.8 µM (inactive); with XF498, > 89.9 µM (inactive); in the assay on HOP-18, > 100 µM (inactive); in the assay on SK-OV-3, > 100 µM (inactive); with IGROV-1, > 81.5 µM (inactive); in the assay on M19-MEL, > 100 µM (inactive). The GI50 is 51.9 µM (inactive) in the assay on K562; 43.1 µM (inactive) in the assay with NCI-H460; 63 µM (inactive) with CCRF-CEM; > 100 µM (inactive) in the assay with SK-MEL-28; 10.9 µM (inactive) in the assay with KM12.
For the compound `CSCSCC(N)CO.Cc1[nH]c(=O)[nH]c(=O)c1/C=C/C(=O)O`, the GI50 in the assay with U-251, in the assay with XF498, with HOP-18, in the assay on SK-OV-3, in the assay with IGROV-1 and in the assay with DMS-114 was > 625 µM (inactive) in each case. The GI50 with M19-MEL, with K562, in the assay with NCI-H460, in the assay on CCRF-CEM, with SK-MEL-28 and in the assay with KM12 was > 625 µM (inactive) in each case.
On to `C=CC1(NC(=O)c2ccccc2)CCC(C(C)(C)C)CC1` (centres undefined), for which the GI50 was 22.5 µM (inactive) with U-251; > 43.1 µM (inactive) in the assay with XF498; 47.5 µM (inactive) in the assay with HOP-18; 80.7 µM (inactive) in the assay on SK-OV-3; 37.6 µM (inactive) in the assay with IGROV-1; 27.7 µM (inactive) in the assay on DMS-114. Also, the GI50 in the assay with M19-MEL is 29.5 µM (inactive); in the assay with K562, 30.8 µM (inactive); in the assay on NCI-H460, 31.1 µM (inactive); in the assay with CCRF-CEM, 18.5 µM (inactive); in the assay with SK-MEL-28, 42.6 µM (inactive); in the assay with KM12, 35.2 µM (inactive).
